{"source": "ChEMBL document CHEMBL4842342", "about": "“Amidoxime prodrugs convert to potent cell-active multimodal inhibitors of the dengue virus protease” (Eur J Med Chem, 2021)", "key": {"dengue virus type 2 [1]": {"test_system": "dengue virus type 2", "experiment": "Antiviral activity against Dengue virus 2 measured at 48 hrs post-infection", "type": "functional, organism-based"}, "Genome polyprotein [2]": {"target": "T1, Genome polyprotein (dengue virus type 2, UniProt P29990)", "experiment": "Inhibition of DENV2 NS2B-NS3 protease"}, "dengue virus type 2 [3]": {"test_system": "dengue virus type 2", "experiment": "Antiviral activity against DENV2 infected in human Huh-7 cells assessed as log reduction in intracellular viral RNA synthesis at 10 uM treated at 6 hrs post-viral infection and measured after 38 hrs by real time RT-PCR method", "type": "functional"}, "dengue virus type 4": {"test_system": "dengue virus type 4", "experiment": "Antiviral activity against DENV4", "type": "functional, organism-based"}, "dengue virus type 2 [4]": {"test_system": "dengue virus type 2", "experiment": "Antiviral activity against Dengue virus 2 EDEN2 infected in human Huh-7 cells", "type": "functional, organism-based", "settings": "EDEN2, Huh-7"}, "dengue virus type 3": {"test_system": "dengue virus type 3", "experiment": "Antiviral activity against DENV3", "type": "functional, organism-based"}, "[5]": {"target": "Genome polyprotein (dengue virus type 2) (UniProt P29990)", "experiment": "Inhibition of NS2B-NS3 protease in DENV2 infected in human Huh-7 cells assessed as inhibition of NS3 internal cleavage site at 10 uM treated 6 hrs […] viral infection and measured at 30 hrs post-infection by western blot analysis", "type": "cell-based", "settings": "time 24.0 hrs"}, "dengue virus type 1": {"test_system": "dengue virus type 1", "experiment": "Antiviral activity against DENV1", "type": "functional, organism-based"}, "Genome polyprotein [6]": {"target": "T1, Genome polyprotein", "experiment": "Inhibition of NS2B-NS3 protease in DENV2 EDEN2 infected in human Huh-7 cells", "type": "cell-based"}, "[7]": {"experiment": "Cytotoxicity against human Huh-7 cells assessed as reduction in cell viability", "type": "cell-based"}, "dengue virus type 2 [8]": {"test_system": "dengue virus type 2", "experiment": "Antiviral activity against DENV2", "type": "functional, organism-based"}, "dengue virus type 2 [9]": {"test_system": "dengue virus type 2", "experiment": "Antiviral activity against DENV2 infected in human Huh-7 cells assessed as log reduction in intracellular viral RNA synthesis at 10 uM treated at 6 hrs post-viral infection and measured after 12 hrs by real time RT-PCR method", "type": "functional"}, "[10]": {"experiment": "Cytotoxicity against human PBMC assessed as reduction in cell viability"}, "dengue virus type 2 [11]": {"test_system": "dengue virus type 2", "experiment": "Antiviral activity against DENV2 D2Y10 virus infected in human PBMC cells in presence of 4G2 antibody", "type": "functional, organism-based"}, "dengue virus type 2 [12]": {"test_system": "dengue virus type 2", "experiment": "Antiviral activity against DENV2 infected in human Huh-7 cells assessed as reduction in intracellular viral RNA synthesis at 10 uM treated at 6 hrs post-viral infection and measured after 48 hrs by real time RT-PCR method", "type": "functional, organism-based"}, "dengue virus type 2 [13]": {"test_system": "dengue virus type 2", "experiment": "Antiviral activity against DENV2 infected in human Huh-7 cells assessed as log reduction in extracellular viral RNA synthesis at 10 uM treated at 6 hrs post-viral infection and measured after 48 hrs by real time RT-PCR method", "type": "functional"}, "dengue virus type 2 [14]": {"test_system": "dengue virus type 2", "experiment": "Antiviral activity against DENV2 infected in human Huh-7 cells assessed as viral infection rate at 10 uM treated at 6 hrs post-viral infection and measured at 30 hrs post-infection by confocal microscopy (reference value: 50 to 60%)", "type": "functional", "settings": "time 24 hrs"}, "Zika virus": {"test_system": "Zika virus", "experiment": "Antiviral activity against Zika virus", "type": "functional, organism-based"}, "[15]": {"target": "Genome polyprotein (dengue virus type 2) (UniProt P29990)", "experiment": "Inhibition of DENV2 NS2B-NS3 protease up to 200 uM", "settings": "dose microM <=200"}, "dengue virus type 2 [16]": {"test_system": "dengue virus type 2", "experiment": "Antiviral activity against Dengue virus 2 infected in human A549 cells assessed as reduction in viral titer production measured after 48 hrs by plaque reduction assay", "type": "functional, organism-based", "settings": "A549, 48 h"}, "[17]": {"settings": "Dengue virus, 48 h, read-out: EC50"}}, "note": "Activity calls are given as the source filed them. The calls are words filed in the database; no cut-off is given here."}
{"smiles": "COc1ccc(S(=O)(=O)n2c3ccc(-c4cccc(/C(N)=N/O)c4)cc3c3cc(-c4cccc(/C(N)=N/O)c4)ccc32)cc1F", "values": [{"measurement": "EC50", "setting": "dengue virus type 2 [1]; [17]", "result": 2.7, "unit": "µM"}]}
{"smiles": "CCn1c2ccc(-c3cccc(/C(N)=N/O)c3)cc2c2cc(-c3cccc(/C(N)=N/O)c3)ccc21", "values": [{"measurement": "EC50", "setting": "dengue virus type 2 [1]; [17]", "result": 1.5, "unit": "µM"}]}
{"smiles": "N/C(=N\\O)c1cccc(-c2ccc3c(c2)c2cc(-c4cccc(/C(N)=N/O)c4)ccc2n3S(=O)(=O)c2ccccc2Cl)c1", "values": [{"measurement": "EC50", "setting": "dengue virus type 2 [1]; [17]", "result": 2.7, "unit": "µM"}]}
{"smiles": "N/C(=N\\O)c1cccc(-c2ccc3c(c2)c2cc(-c4cccc(/C(N)=N/O)c4)ccc2n3S(=O)(=O)c2ccc(Br)cc2)c1", "values": [{"measurement": "EC50", "setting": "dengue virus type 2 [1]; [17]", "result": 5.4, "unit": "µM"}]}
{"smiles": "CN(C)CCCn1c2ccc(-c3cccc(/C(N)=N/O)c3)cc2c2cc(-c3cccc(/C(N)=N/O)c3)ccc21", "values": [{"measurement": "EC50", "setting": "dengue virus type 2 [1]", "result": "Not Active"}]}
{"smiles": "N=C(N)c1cccc(-c2ccc3c(c2)c2cc(-c4cccc(C(=N)N)c4)ccc2n3S(=O)(=O)c2cccc(OC(F)(F)F)c2)c1", "values": [{"measurement": "EC50", "setting": "dengue virus type 2 [1]; [17]", "result": 8.1, "unit": "µM"}, {"measurement": "IC50", "setting": "Genome polyprotein [2]; read-out: IC50", "result": 3.1, "unit": "µM"}]}
{"smiles": "COc1ccc(F)cc1S(=O)(=O)n1c2ccc(-c3cccc(/C(N)=N/O)c3)cc2c2cc(-c3cccc(/C(N)=N/O)c3)ccc21", "values": [{"measurement": "EC50", "setting": "dengue virus type 2 [1]; [17]", "result": 2.8, "unit": "µM"}]}
{"smiles": "N/C(=N\\O)c1cccc(-c2ccc3c(c2)c2cc(-c4cccc(/C(N)=N/O)c4)ccc2n3Cc2cc(F)cc(Br)c2)c1", "values": [{"measurement": "EC50", "setting": "dengue virus type 2 [1]; [17]", "result": 1.5, "unit": "µM"}]}
{"smiles": "N/C(=N\\O)c1cccc(-c2ccc3c(c2)c2cc(-c4cccc(/C(N)=N/O)c4)ccc2n3Cc2cccc(Br)c2)c1", "values": [{"measurement": "log(activity)", "setting": "dengue virus type 2 [3]", "result": 2}, {"measurement": "EC50", "setting": "dengue virus type 4", "result": 1.7, "unit": "µM"}, {"measurement": "EC50", "setting": "dengue virus type 2 [4]", "result": 1.1, "unit": "µM"}, {"measurement": "EC50", "setting": "dengue virus type 2 [1]; [17]", "result": 1.1, "unit": "µM"}, {"measurement": "EC50", "setting": "dengue virus type 3", "result": 5.1, "unit": "µM"}, {"measurement": "inhibition", "setting": "[5]", "result": "Active"}, {"measurement": "EC50", "setting": "dengue virus type 1", "result": 5.9, "unit": "µM"}, {"measurement": "IC50", "setting": "Genome polyprotein [6]", "result": 18, "unit": "µM"}, {"measurement": "CC50", "setting": "[7]", "result": "> 100", "unit": "µM"}, {"measurement": "EC50", "setting": "dengue virus type 2 [8]", "result": 1.4, "unit": "µM"}, {"measurement": "log(activity)", "setting": "dengue virus type 2 [9]", "result": 2}, {"measurement": "CC50", "setting": "[10]", "result": "> 100", "unit": "µM"}, {"measurement": "EC50", "setting": "dengue virus type 2 [11]", "result": 1.66, "unit": "µM"}, {"measurement": "Activity", "setting": "dengue virus type 2 [12]", "result": "inactive"}, {"measurement": "log(activity)", "setting": "dengue virus type 2 [13]", "result": 3}, {"measurement": "Activity", "setting": "dengue virus type 2 [14]", "result": 10, "unit": "%"}]}
{"smiles": "N/C(=N\\O)c1cccc(-c2ccc3c(c2)c2cc(-c4cccc(/C(N)=N/O)c4)ccc2n3S(=O)(=O)c2cc(F)cc(Br)c2)c1", "values": [{"measurement": "EC50", "setting": "dengue virus type 2 [1]; [17]", "result": 17.3, "unit": "µM"}]}
{"smiles": "N=C(N)c1cccc(-c2ccc3c(c2)c2cc(-c4cccc(C(=N)N)c4)ccc2n3S(=O)(=O)c2ccccc2OC(F)(F)F)c1", "values": [{"measurement": "EC50", "setting": "dengue virus type 2 [1]; [17]", "result": 5.6, "unit": "µM"}, {"measurement": "IC50", "setting": "Genome polyprotein [2]; read-out: IC50", "result": 9.8, "unit": "µM"}]}
{"smiles": "N=C(N)c1cccc(-c2ccc3c(c2)c2cc(-c4cccc(C(=N)N)c4)ccc2n3S(=O)(=O)c2ccccc2Br)c1", "values": [{"measurement": "EC50", "setting": "dengue virus type 2 [1]; [17]", "result": 6.9, "unit": "µM"}, {"measurement": "IC50", "setting": "Genome polyprotein [2]; read-out: IC50", "result": 8.8, "unit": "µM"}]}
{"smiles": "COc1ccc(Br)cc1S(=O)(=O)n1c2ccc(-c3cccc(/C(N)=N/O)c3)cc2c2cc(-c3cccc(/C(N)=N/O)c3)ccc21", "values": [{"measurement": "EC50", "setting": "dengue virus type 2 [1]; [17]", "result": 4.9, "unit": "µM"}]}
{"smiles": "N/C(=N\\O)c1cccc(-c2ccc3c(c2)c2cc(-c4cccc(/C(N)=N/O)c4)ccc2n3S(=O)(=O)c2cccc(Br)c2)c1", "values": [{"measurement": "EC50", "setting": "dengue virus type 2 [1]; [17]", "result": 2.4, "unit": "µM"}]}
{"smiles": "COc1ccc(S(=O)(=O)n2c3ccc(-c4cccc(/C(N)=N/O)c4)cc3c3cc(-c4cccc(/C(N)=N/O)c4)ccc32)cc1", "values": [{"measurement": "EC50", "setting": "dengue virus type 2 [1]; [17]", "result": 9.6, "unit": "µM"}, {"measurement": "IC50", "setting": "Genome polyprotein [2]", "result": "Not Active"}]}
{"smiles": "N/C(=N\\O)c1cccc(-c2ccc3c(c2)c2cc(-c4cccc(/C(N)=N/O)c4)ccc2n3Cc2ccc3c(c2)OCO3)c1", "values": [{"measurement": "EC50", "setting": "dengue virus type 2 [1]; [17]", "result": 5, "unit": "µM"}]}
{"smiles": "COc1cccc(Cn2c3ccc(-c4cccc(/C(N)=N/O)c4)cc3c3cc(-c4cccc(/C(N)=N/O)c4)ccc32)c1", "values": [{"measurement": "EC50", "setting": "Zika virus", "result": 8.7, "unit": "µM"}, {"measurement": "EC50", "setting": "dengue virus type 2 [1]; [17]", "result": 1.8, "unit": "µM"}, {"measurement": "inhibition", "setting": "[15]", "result": "inactive"}]}
{"smiles": "COc1cccc(Cn2c3ccc(-c4cccc(C(=N)N)c4)cc3c3cc(-c4cccc(C(=N)N)c4)ccc32)c1", "values": [{"measurement": "EC50", "setting": "dengue virus type 2 [1]; [17]", "result": 6.6, "unit": "µM"}, {"measurement": "IC50", "setting": "Genome polyprotein [2]; read-out: IC50", "result": 2.71, "unit": "µM"}]}
{"smiles": "N/C(=N\\O)c1cccc(-c2ccc3c(c2)c2cc(-c4cccc(/C(N)=N/O)c4)ccc2n3S(=O)(=O)c2cccc(Cl)c2)c1", "values": [{"measurement": "EC50", "setting": "dengue virus type 2 [1]; [17]", "result": 7.6, "unit": "µM"}]}
{"smiles": "COc1ccc(S(=O)(=O)n2c3ccc(-c4cccc(/C(N)=N/O)c4)cc3c3cc(-c4cccc(/C(N)=N/O)c4)ccc32)c(OC)c1", "values": [{"measurement": "EC50", "setting": "dengue virus type 2 [1]; [17]", "result": 1.8, "unit": "µM"}]}
{"smiles": "N/C(=N\\O)c1cccc(-c2ccc3c(c2)c2cc(-c4cccc(/C(N)=N/O)c4)ccc2n3S(=O)(=O)c2ccccc2OC(F)(F)F)c1", "values": [{"measurement": "EC50", "setting": "dengue virus type 2 [1]; [17]", "result": 1.9, "unit": "µM"}, {"measurement": "IC50", "setting": "Genome polyprotein [2]", "result": "Not Active"}]}
{"smiles": "N/C(=N\\O)c1cccc(-c2ccc3c(c2)c2cc(-c4cccc(/C(N)=N/O)c4)ccc2n3CCCCOc2ccc3ccc(=O)[nH]c3c2)c1", "values": [{"measurement": "EC50", "setting": "dengue virus type 2 [1]; [17]", "result": 8.9, "unit": "µM"}]}
{"smiles": "O=C1C=C/C(=N/Nc2ccc([N+](=O)[O-])cc2Cl)C=C1C(=O)Nc1cccc(Cl)c1", "values": [{"measurement": "EC50", "setting": "dengue virus type 2 [16]", "result": 0.81, "unit": "µM"}]}
{"smiles": "N/C(=N\\O)c1cccc(-c2ccc3c(c2)c2cc(-c4cccc(/C(N)=N/O)c4)ccc2n3S(=O)(=O)c2ccccc2C(F)(F)F)c1", "values": [{"measurement": "EC50", "setting": "dengue virus type 2 [1]; [17]", "result": 5.3, "unit": "µM"}]}
